Experiments:
[1] = Clinical study safety: diastolic blood pressure; assay type: in vivo, human; conditions: combined placebo + Compound 1 patients; for Mean Diastolic Blood Pressure: Baseline 80.3
Excerpt: (§1) The study was configured as a placebo-controlled, double-masked, randomized, Phase 2 study in approximately 100 subjects with moderately severe to severe NPDR (diabetic retinopathy severity score [DRSS] Level 47 or 53, see FIG. 1) or mild PDR (DRSS Level 61), evaluating safety and efficacy following administration of Compound 1 twice daily for 24 weeks. The study was configured for a 1:1 randomization (placebo: Compound 1). Randomization was stratified by level of disease severity (NPDR or PDR). Subjects with mild PDR were capped at 20% for each arm. Efficacy evaluations at 12 and/or 24 weeks included DRSS, center-involved diabetic macular edema (DME), moderate PDR or PDR-related adverse events (AEs), best-corrected visual acuity (BCVA), and central subfield thickness (CST). Further experimental procedures and results are described below.
(§2) At the Qualification/Baseline (Visit 2, Day 1): • The subject was randomized into the study. • Study medication was dispensed in accordance with the subjects randomized treatment arm. • Blood samples were drawn pre-dose for baseline levels and on Visit 9 (Week 24) for exploratory biomarker processing (i.e., cytokine and Ref-1 levels) to evaluate pharmacodynamic properties. • Subjects were instructed to administer their study medication (Compound 1 or placebo) each day, with 3 tablets every morning and 2 tablets every evening. Study medication was to be taken at approximately the same time each day and may be taken with or without food.
At the Second Treatment Visit (Visit 6, Week 12±2 Days), subjects were to return to the site for the following series of safety and efficacy assessments: drug accountability, concomitant medications, urine pregnancy test (only for women of childbearing potential), HR/BP/vital signs, BCVA (ETDRS), DRSS, CST (SD-OCT), blood draw for PK, blood chemistry, blood hematology, biomicroscopy, ophthalmoscopy, IOP, eGFR, and AEs. Following the completion of the assessments, used medication kits were collected for accountability (by counting the number of unused tablets), and new study medication kits dispensed.
At the Third Treatment Visit (Visit 9, Week 24±2 Days), subjects were to return to the site for the following series of safety and efficacy assessments: drug accountability, concomitant medications, urine pregnancy test (only for women of childbearing potential), physical examination, HR/BP/vital signs, BCVA (ETDRS), DRSS, CST (SD-OCT), blood chemistry, blood hematology, biomicroscopy, ophthalmoscopy, IOP, eGFR, AEs, and blood draw for exploratory biomarkers (ELISA, cytokine panel, comprehensive metabolic panel). Visit 9 (Week 24) was the end of the treatment period. Study medication was returned for accountability (by counting the number of unused tablets), and no further study medication dispensed.
Safety endpoints include: • Incidence and severity of systemic and ocular AEs, • Change from baseline in body system assessments, • Change from baseline in vital sign measurements, • Change from baseline in clinical laboratory assay results (blood chemistry, hematology), • Change from baseline in intraocular pressure (IOP), • Change from baseline in slit-lamp examination parameters, • Change from baseline in dilated funduscopic examination parameters, • Percent of subjects with a decrease of ≥10 letters in BCVA compared to baseline at Week 12 and Week 24, • Percent of subjects progressing to center-involved DME (eligible for rescue treatment at Week 12 and Week 24), • Percent of subjects with a worsening in DRSS of ≥2 steps in the study eye at Week 12 and Week 24, • Percent of subjects developing anterior segment neovascularization at Week 12 and Week 24, • Percent of subjects rescued (intravitreal anti-VEGF injection, laser PRP, focal/grid laser treatment, or surgery [vitrectomy]) at the discretion of the Investigator at Week 12 and Week 24, and • Change from baseline in estimated glomerular filtration rate (eGFR) at Week 12 and Week 24. […]

[2] = Clinical study safety: treatment-emergent adverse events; assay type: in vivo, human
Excerpt: as §1, §2
Safety endpoints include: • Incidence and severity of systemic and ocular AEs, • Change from baseline in body system assessments, • Change from baseline in vital sign measurements, • Change from baseline in clinical laboratory assay results (blood chemistry, hematology), • Change from baseline in intraocular pressure (IOP), • Change from baseline in slit-lamp examination parameters, • Change from baseline in dilated funduscopic examination parameters, • Percent of subjects with a decrease of ≥10 letters in BCVA compared to baseline at Week 12 and Week 24, • Percent of subjects progressing to center-involved DME (eligible for rescue treatment at Week 12 and Week 24), • Percent of subjects with a worsening in DRSS of ≥2 steps in the study eye at Week 12 and Week 24, • Percent of subjects developing anterior segment neovascularization at Week 12 and Week 24, • Percent of subjects rescued (intravitreal anti-VEGF injection, laser PRP, focal/grid laser treatment, or surgery [vitrectomy]) at the discretion of the Investigator at Week 12 and Week 24, and • Change from baseline in estimated glomerular filtration rate (eGFR) at Week 12 and Week 24.
Analysis populations included: • Modified Intention-to-Treat (mITT): The mITT includes all randomized subjects who received at least one dose of study treatment and at least one post-dose efficacy measurement. […] The PP population will be used for primary endpoint analysis and to analyze efficacy endpoints. • All Randomized Population (ARP): The ARP includes all randomized subjects. This population is also known as the Intent-to-Treat (ITT) population. The ARP will be used in confirmatory efficacy analyses. • Safety Population (SP): The SP includes all randomized subjects who have received at least one dose of study treatment. The SP was used to summarize safety variables.
Provided below is data on safety on Compound 1 orally administered to patients according to the study protocol described herein. The data is from one-hundred patients that were enrolled in the trial. Per the study protocol described above, patients enrolled in the study were randomized 1:1 for receipt of placebo versus Compound 1. The safety data below is the combined results from patients that received placebo and those received Compound 1.
Table 9 below provides a summary of occurrence of adverse events across 100 subjects enrolled in the study, which is the combined results from patients that received placebo and those that received Compound 1. […]

[3] = 100 subjects, combined placebo + Compound 1, bilateral ocular events counted twice
[4] = 100 subjects, combined placebo + Compound 1 patients

CCCCCCCCC/C(=C\C1=C(C)C(=O)C(OC)=C(OC)C1=O)C(=O)O [Compound 1, (E)-2-((4,5-dimethoxy-2-methyl-3,6-dioxocyclohexa-1,4-dien-1-yl)methylene)undecanoic acid]
Mean Diastolic Blood Pressure ([1]; Week 12, 62 subjects): 77.1 mmHg | Mean Diastolic Blood Pressure ([1]; Week 24, 27 subjects): 80.4 mmHg | change in mean diastolic blood pressure relative to Baseline ([1]; week 12, 62 subjects): −2.8 mmHg | reduction in mean diastolic blood pressure relative to Baseline ([1]; week 12, 62 subjects): 3% | change in mean diastolic blood pressure relative to Baseline ([1]; week 24, 27 subjects): +1 mmHg | increase in mean diastolic blood pressure relative to Baseline ([1]; week 24, 27 subjects): 1% | No. of Subjects That Experienced a Treatment-Emergent Adverse the Category: Anterior (eye disorder) [2, 3]: 5 | No. of Subjects That Experienced a Treatment-Emergent Adverse the Category: Posterior (eye disorder) [2, 3]: 9 | No. of Subjects That Experienced a Treatment-Emergent Adverse the Category: Blood or lymphatic system disorder [2, 4]: 1 | No. of Subjects That Experienced a Treatment-Emergent Adverse the Category: Cardiac disorder [2, 4]: 1 | No. of Subjects That Experienced a Treatment-Emergent Adverse the Category: Ear or labyrinth disorder [2, 4]: 1 | No. of Subjects That Experienced a Treatment-Emergent Adverse the Category: Eye disorder [2, 4]: 9 | No. of Subjects That Experienced a Treatment-Emergent Adverse the Category: Gastrointestinal disorder [2, 4]: 9 | No. of Subjects That Experienced a Treatment-Emergent Adverse the Category: General disorders or administration site condition [2, 4]: 1 | No. of Subjects That Experienced a Treatment-Emergent Adverse the Category: Hepatobiliary disorder [2, 4]: 1 | No. of Subjects That Experienced a Treatment-Emergent Adverse the Category: Infection or infestation [2, 4]: 9 | No. of Subjects That Experienced a Treatment-Emergent Adverse the Category: Injury, poisoning, or procedural complication [2, 4]: 1 | No. of Subjects That Experienced a Treatment-Emergent Adverse the Category: Investigation [2, 4]: 3 | No. of Subjects That Experienced a Treatment-Emergent Adverse the Category: Metabolism or nutrition disorder [2, 4]: 1 | No. of Subjects That Experienced a Treatment-Emergent Adverse the Category: Musculoskeletal and connective tissue disorder [2, 4]: 5 | No. of Subjects That Experienced a Treatment-Emergent Adverse the Category: Nervous system disorder [2, 4]: 7 | No. of Subjects That Experienced a Treatment-Emergent Adverse the Category: Not coded [2, 4]: 4 | No. of Subjects That Experienced a Treatment-Emergent Adverse the Category: Psychiatric disorder [2, 4]: 2 | No. of Subjects That Experienced a Treatment-Emergent Adverse the Category: Reproductive system or breast disorder [2, 4]: 1 | No. of Subjects That Experienced a Treatment-Emergent Adverse the Category: Respiratory, thoracic, or mediastinal disorder [2, 4]: 2 | No. of Subjects That Experienced a Treatment-Emergent Adverse the Category: Skin and subcutaneous tissue disorder [2, 4]: 7 | No. of Subjects That Experienced a Treatment-Emergent Adverse the Category: Vascular disorder [2, 4]: 1 | safety profile ([2]; administered according to study protocol, 600 mg/day oral, 24 weeks): good safety profile | total treatment-emergent adverse events observed ([2]; from 100 subjects, combined placebo + Compound 1 patients): 83 | subjects reporting at least one treatment-emergent adverse event ([2]; of 100 subjects, combined placebo + Compound 1 patients): 41

Source: patent US20260108483A1, “METHODS AND COMPOSITIONS FOR PREVENTING THE PROGRESSION OF DIABETIC RETINOPATHY AND RELATED CONDITIONS” (Opus Genetics, Inc., priority 2023, published 2026)
